Data reported in patent US11021457B2, “Class of isoindolone-imide ring-1,3-dione-2-ene compounds, composition and use thereof” (WIGEN BIOMEDICINE TECHNOLOGY (SHANGHAI) CO., LTD., priority 2017, dated 2021).

Key:
[1] = system: human multiple myeloma RPMI8226 cell xenograft tumor; test: In-vivo anti-tumor efficacy in multiple myeloma xenograft tumor model (tumor volume, T/C, TGI); design: species or system mouse; settings: for Average volume (mm3) Start of the treatment Day 1 / Average volume (mm3) End of the treatment Day 21 / T/C %: QD × 21; for Average volume (mm3) End of the treatment Day 21 / T/C %: Day 21
Protocol: The in-vivo anti-tumor efficacy of the compound 1, lenalidomide, dexamethasone and a combination of the compound 1 or lenalidomide with dexamethasone in human multiple myeloma RPMI8226 cell xenograft tumor model was evaluated.
(§1) The test animals were female CB17 SCID mice. Human RPMI8226 cells were cultured in RPMI1640 medium containing 10% heat-inactivated fetal bovine serum and 1% penicillin-streptomycin double antibody in an incubator with 5% CO2 at 37° C. When the cells were in an exponential growth phase, the cells were harvested, counted, and subcutaneously inoculated into the right dorsal portion of each mouse. The mice were grouped and administered when the average tumor volume reached about 150 mm^3. Grouping method: the animals were weighed and measured for the tumor volume before administration, and grouped by block design according to the tumor volume.
(§2) Whether the tumor growth could be inhibited, delayed or cured was investigated. The diameter of the tumor was measured by a vernier caliper. The tumor volume was calculated by a formula: V=0.5×a×b^2, in which a and b respectively represent the long diameter and short diameter of the tumor. The anti-tumor effect T/C (%) of the compound was evaluated by a formula: T/C %=TRTV/CRTV×100% (TRTV: RTV of the treatment group; CRTV: RTV of the negative control group). The relative tumor volume RTV was calculated by a formula: RTV=Vt/V0, where V0 is the measured tumor volume at the time of grouping and administration (i.e. day 0), and Vt is the tumor volume at each measurement. T/C (%) reflects the inhibition rate on tumor growth. […] The weight of the mice bearing tumor in each group was recorded and analyzed, as shown in FIGS. 1 and 2 and Table 14, and the effect of the compound on the tumor volume of the mice bearing tumor is shown in FIGS. 3 and 4 and Table 15.

[2] = Body weight of tumor-bearing mice in the in-vivo pharmacodynamic test; design: species or system mouse; settings: for Average body weight (g) Start of the treatment Day 1 / Average body weight (g) End of the treatment Day 21 / Average RCBW (%)/end of the treatment Day 21: QD × 21; for Average body weight (g) Start of the treatment Day 1 / Average body weight (g) End of the treatment Day 21: x ± SEM; for Average RCBW (%)/end of the treatment Day 21: Day 21 relative to Day 1
Protocol: as §1, §2

BxPC-3 = test: Inhibition of tumor cell proliferation, CellTiter-Glo, BxPC-3; type: cell-based; settings: compound concentration 50 μM, 72 hours
Outline: (§3)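 Compound tested at 50 μM for 72 h, read by CellTiter-Glo. Survival rate = (treated−blank)/(control−blank) RLU ×100, binned as +++ ≤30%, ++ >30-≤60%, + 60-<90%. Seeding 2000-10000 cells/well depending on growth rate.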

A549 = test: Inhibition of tumor cell proliferation, CellTiter-Glo, A549; type: cell-based; settings: compound concentration 50 μM, 72 hours
Outline: as §3

MDA-MB-453 = test: Inhibition of tumor cell proliferation, CellTiter-Glo, MDA-MB-453; type: cell-based; settings: compound concentration 50 μM, 72 hours
Outline: as §3

K562 = test: Inhibition of tumor cell proliferation, CellTiter-Glo, K562; type: cell-based; settings: compound concentration 50 μM, 72 hours
Outline: as §3

LC3B = LC3B (Homo sapiens (Human), UniProt Q9GZQ8); test: Fluorescence polarization experiment targeting LC3B (GST-LC3B with FITC-labeled peptide); settings: GST-LC3B 180 nM, FITC-labeled peptide 18 nM, 25° C.
SU-DHL6 = test: Inhibition of tumor cell proliferation, CellTiter-Glo, SU-DHL6; type: cell-based; settings: compound concentration 50 μM, 72 hours
Outline: as §3

RPMI-8226 = test: Inhibition of tumor cell proliferation, CellTiter-Glo, RPMI-8226; type: cell-based; settings: compound concentration 50 μM, 72 hours
Outline: as §3

[3] = Lenalidomide 30 mg/kg + Dexamethasone 1 mg/kg
[4] = Lenalidomide 30 mg/kg p.o, RPMI8226 tumor-bearing mice
[5] = Lenalidomide 30 mg/kg p.o + Dexamethasone 1 mg/kg i.p
[6] = Lenalidomide 30 mg/kg p.o., RPMI8226 tumor-bearing mice
[7] = Compound 1 53 mg/kg + Dexamethasone 1 mg/kg
[8] = Compound 1 53 mg/kg p.o + Dexamethasone 1 mg/kg i.p

Nc1cccc2c1CN(C1CCC(=O)NC1=O)C2=O (stereo not drawn) [Lenalidomide, reference compound]
Average volume (mm3) Start of the treatment Day 1 [1, 3]: 141.35 ± 15.02 mm3 | Average volume (mm3) End of the treatment Day 21 [1, 3]: 233.72 ± 47.47 mm3 | T/C % [1, 3]: 12.51% | Average volume (mm3) Start of the treatment Day 1 [1, 4]: 140.44 ± 15.82 mm3 | T/C % ([1]; Lenalidomide 30 mg/kg p.o): 49.67% | Average volume (mm3) End of the treatment Day 21 [1, 4]: 927.82 ± 164.85 mm3 | Average body weight (g) Start of the treatment Day 1 [2, 5]: 21.23 ± 0.34 g | Average body weight (g) End of the treatment Day 21 [2, 5]: 20.08 ± 0.25 g | Average RCBW (%)/end of the treatment Day 21 [2, 5]: −5.33% | Average body weight (g) Start of the treatment Day 1 [2, 6]: 21.02 ± 0.23 g | Average body weight (g) End of the treatment Day 21 [2, 6]: 21.90 ± 0.30 g | Average RCBW (%)/end of the treatment Day 21 ([2]; Lenalidomide 30 mg/kg p.o.): 4.18%

O=C1CCC(N2Cc3c(NC=C4C(=O)CC(c5ccccc5)CC4=O)cccc3C2=O)C(=O)N1 (stereo not drawn) [Compound 1]
Inhibitory activity against proliferation (cell survival rate) BxPC-3 (BxPC-3): ++ (30<survival rate (%)≤60) | Inhibitory activity against proliferation (cell survival rate) A549 (A549): +++ (survival rate (%)≤30) | Tumor inhibition effect ([1]; 17.7 mg/kg, versus lenalidomide 30 mg/kg): comparable to that of lenalidomide | Anti-tumor effect ([1]; 53 mg/kg (same molar dose as lenalidomide)): significantly higher than lenalidomide | Average volume (mm3) Start of the treatment Day 1 ([1]; Compound 1 17.7 mg/kg p.o): 141.27 ± 14.61 mm3 | Average volume (mm3) End of the treatment Day 21 ([1]; Compound 1 17.7 mg/kg p.o): 881.71 ± 175.49 mm3 | T/C % ([1]; Compound 1 17.7 mg/kg p.o): 47.20% | Average volume (mm3) Start of the treatment Day 1 [1, 7]: 141.54 ± 14.27 mm3 | Average volume (mm3) End of the treatment Day 21 [1, 7]: 179.24 ± 48.35 mm3 | T/C % [1, 7]: 9.60% | Average volume (mm3) Start of the treatment Day 1 ([1]; Compound 1 53 mg/kg p.o): 142.38 ± 15.41 mm3 | Average volume (mm3) End of the treatment Day 21 ([1]; Compound 1 53 mg/kg p.o): 674.46 ± 137.82 mm3 | T/C % ([1]; Compound 1 53 mg/kg p.o): 36.11% | Tumor inhibition effect ([1]; in combination with dexamethasone): stronger tumor inhibition effect than lenalidomide | Inhibitory activity against proliferation (cell survival rate) MDA-MB-453 (MDA-MB-453): ++ (30<survival rate (%)≤60) | Inhibitory activity against proliferation (cell survival rate) K562 (K562): +++ (survival rate (%)≤30) | IC50 (LC3B): 3 to 15 µM | Inhibitory activity against proliferation (cell survival rate) SU-DHL6 (SU-DHL6): +++ (survival rate (%)≤30) | Inhibitory activity against proliferation (cell survival rate) RPMI-8226 (RPMI-8226): +++ (survival rate (%)≤30) | Average body weight (g) Start of the treatment Day 1 ([2]; Compound 1 17.7 mg/kg p.o): 21.60 ± 0.36 g | Average body weight (g) End of the treatment Day 21 ([2]; Compound 1 17.7 mg/kg p.o): 22.49 ± 0.39 g | Average RCBW (%)/end of the treatment Day 21 ([2]; Compound 1 17.7 mg/kg p.o): 4.13% | Average body weight (g) Start of the treatment Day 1 [2, 8]: 21.41 ± 0.32 g | Average body weight (g) End of the treatment Day 21 [2, 8]: 20.46 ± 0.31 g | Average RCBW (%)/end of the treatment Day 21 [2, 8]: −4.46% | Average body weight (g) Start of the treatment Day 1 ([2]; Compound 1 53 mg/kg p.o): 21.15 ± 0.36 g | Average body weight (g) End of the treatment Day 21 ([2]; Compound 1 53 mg/kg p.o): 22.25 ± 0.31 g | Average RCBW (%)/end of the treatment Day 21 ([2]; Compound 1 53 mg/kg p.o): 5.27% | Effect on body weight of tumor-bearing mice ([2]; in combination with dexamethasone, attributed to dexamethasone): weight loss | Effect on body weight of tumor-bearing mice ([2]; throughout the administration period): does not affect the body weight
